# Key:
# [1] = tested on: morningglory; assay: Test B pre/postemergence morningglory; assay type: in vivo, Ipomoea hederacea
# In short: (§1)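 Herbicidal effect was estimated by eye on a ten-point control scale after plants spent twelve to sixteen days in a greenhouse following soil or foliar treatment. Foliar sprays targeted plants at one to four leaves; all doses were formulated in a non-phytotoxic solvent with surfactant.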
# [2] = tested on: pigweed; assay: Test B pre/postemergence pigweed; assay type: in vivo, Amaranthus retroflexus
# In short: as §1
# [3] = tested on: rice; assay: Test B flood test rice; assay type: in vivo, Oryza sativa
# In short: (§2)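 Flood test on plants grown to the 2-leaf stage; treated plants kept in greenhouse twelve to sixteen days, then visually rated against controls on a 0 (no effect) to 10 (complete control) scale.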
# [4] = tested on: velvetleaf; assay: Test B pre/postemergence velvetleaf; assay type: in vivo, Abutilon theophrasti
# In short: as §1
# [5] = tested on: duck salad; assay: Test B flood test duck salad; assay type: in vivo, Heteranthera limosa
# In short: as §2
# [6] = tested on: surinam grass; assay: Test B pre/postemergence surinam grass; assay type: in vivo, Brachiaria decumbens
# In short: as §1
# [7] = tested on: bedstraw; assay: Test B pre/postemergence bedstraw; assay type: in vivo, Galium aparine; conditions: Preemergence
# In short: as §1
# [8] = tested on: corn; assay: Test B pre/postemergence corn; assay type: in vivo, Zea mays
# In short: as §1
# [9] = tested on: smallflower flatsedge; assay: Test B flood test smallflower flatsedge; assay type: in vivo, Cyperus difformis
# In short: as §2
# [10] = tested on: blackgrass; assay: Test B pre/postemergence blackgrass; assay type: in vivo, Alopecurus myosuroides
# In short: as §1
# [11] = tested on: wheat; assay: Test B pre/postemergence wheat; assay type: in vivo, Triticum aestivum
# In short: as §1
# [12] = tested on: wild oat; assay: Test B pre/postemergence wild oat; assay type: in vivo, Avena fatua
# In short: as §1
# [13] = tested on: giant foxtail; assay: Test B pre/postemergence giant foxtail; assay type: in vivo, Setaria faberii
# In short: as §1
# [14] = tested on: purple nutsedge; assay: Test B pre/postemergence purple nutsedge; assay type: in vivo, Cyperus rotundus
# In short: as §1
# [15] = tested on: crabgrass; assay: Test B pre/postemergence crabgrass; assay type: in vivo, Digitaria sanguinalis
# In short: as §1
# [16] = tested on: soybean; assay: Test B pre/postemergence soybean; assay type: in vivo, Glycine max
# In short: as §1
# [17] = Postemergence, Rate 62 g/ha, scale 0 to 10, 0 is no effect, 10 is complete control
# [18] = Postemergence, Rate 125 g/ha, scale of 0 to 10 where 0 is no effect and 10 is complete control
# [19] = Postemergence, Rate 250 g/ha, scale of 0 to 10, 0 is no effect, 10 is complete control
# [20] = Preemergence, Rate 62 g/ha, scale of 0 to 10 where 0 is no effect and 10 is complete control
# [21] = Preemergence, Rate 125 g/ha, scale of 0 to 10 where 0 is no effect and 10 is complete control
# [22] = Preemergence, Rate 250 g/ha, scale 0 to 10 (0 no effect, 10 complete control)
# [23] = Preemergence, Rate 500 g/ha, scale of 0 to 10 where 0 is no effect and 10 is complete control
# [24] = Rate 500 g/ha, Postemergence, scale 0 to 10, 0 is no effect, 10 is complete control
# [25] = Rate 62 g/ha, flood test species, Pre-emergence, visual evaluation after twelve to sixteen days
# [26] = Rate 125 g/ha, under heading Pre-emergence, flood test species, visual evaluation after twelve to sixteen days
# [27] = Rate 250 g/ha, Pre-emergence (flood test species), scale 0 to 10, 0 is no effect, 10 is complete control
# [28] = Rate 500 g/ha, Pre-emergence section of Table B, 0 to 10 scale (0 no effect, 10 complete control)
compound,measurement,setting,value
C=C(Cc1ccccc1)Cn1c(=O)on(C(=O)N(c2ccccc2)C(C)C)c1=O [Compound 650],"Plant response rating, Morningglory",[1]; [17],4
same,Morningglory plant response rating,[1]; [18],10
same,Morningglory plant response rating,[1]; [19],10
same,Morningglory plant response rating,[1]; [20],0
same,Morningglory plant response rating,[1]; [21],0
same,"Plant response rating, Morningglory",[1]; [22],1
same,"Plant response rating, Morningglory",[1]; [23],1
same,Morningglory plant response rating,[1]; [24],10
same,"Plant response rating, Redroot pigweed",[2]; [17],2
same,Redroot pigweed plant response rating,[2]; [18],6
same,Redroot pigweed plant response rating,[2]; [20],1
same,Redroot pigweed plant response rating,[2]; [21],7
same,"Plant response rating, Redroot pigweed",[2]; [22],7
same,"Plant response rating, Redroot pigweed",[2]; [23],9
same,Redroot pigweed plant response rating,[2]; [24],6
same,"Plant response rating, Rice (0 to 10 scale, 0 is no effect, 10 is complete control)",[3]; [25],0
same,"Rice plant response rating (0 to 10 scale, 0 is no effect, 10 is complete control)",[3]; [26],0
same,Rice plant response rating,[3]; [27],0
same,Rice plant response rating,[3]; [28],0
same,"Plant response rating, Velvetleaf",[4]; [17],0
same,Velvetleaf plant response rating,[4]; [18],0
same,Velvetleaf plant response rating,[4]; [20],0
same,Velvetleaf plant response rating,[4]; [21],0
same,"Plant response rating, Velvetleaf",[4]; [22],0
same,"Plant response rating, Velvetleaf",[4]; [23],0
same,Velvetleaf plant response rating,[4]; [24],2
same,"Plant response rating, Ducksalad (0 to 10 scale, 0 is no effect, 10 is complete control)",[5]; [25],0
same,"Ducksalad plant response rating (0 to 10 scale, 0 is no effect, 10 is complete control)",[5]; [26],0
same,Ducksalad plant response rating,[5]; [27],0
same,Ducksalad plant response rating,[5]; [28],0
same,"Plant response rating, B. signalgrass",[6]; [17],0
same,"Plant response rating, B. signalgrass",[6]; [18],0
same,B. signalgrass plant response rating,[6]; [19],0
same,B. signalgrass plant response rating,[6]; [20],0
same,B. signalgrass plant response rating,[6]; [21],0
same,"Plant response rating, B. signalgrass",[6]; [22],0
same,"Plant response rating, B. signalgrass",[6]; [23],4
same,B. signalgrass plant response rating,[6]; [24],2
same,Bedstraw plant response rating,"[7]; Rate 62 g/ha, scale of 0 to 10 where 0 is no effect and 10 is complete control",0
same,Bedstraw plant response rating,"[7]; Rate 125 g/ha, scale of 0 to 10 where 0 is no effect and 10 is complete control",0
same,"Plant response rating, Bedstraw","[7]; Rate 250 g/ha, scale 0 to 10 (0 no effect, 10 complete control)",0
same,"Plant response rating, Bedstraw","[7]; Rate 500 g/ha, scale of 0 to 10 where 0 is no effect and 10 is complete control",5
same,"Plant response rating, Corn",[8]; [17],0
same,Corn plant response rating,[8]; [18],0
same,Corn plant response rating,[8]; [19],2
same,Corn plant response rating,[8]; [20],0
same,Corn plant response rating,[8]; [21],0
same,"Plant response rating, Corn",[8]; [22],0
same,"Plant response rating, Corn",[8]; [23],0
same,Corn plant response rating,[8]; [24],4
same,"Plant response rating, S. Flatsedge (0 to 10 scale, 0 is no effect, 10 is complete control)",[9]; [25],0
same,"S. Flatsedge plant response rating (0 to 10 scale, 0 is no effect, 10 is complete control)",[9]; [26],0
same,S. Flatsedge plant response rating,[9]; [27],0
same,S. Flatsedge plant response rating,[9]; [28],0
same,"Plant response rating, Blackgrass",[10]; [17],0
same,Blackgrass plant response rating,[10]; [18],0
same,Blackgrass plant response rating,[10]; [19],0
same,Blackgrass plant response rating,[10]; [20],0
same,Blackgrass plant response rating,[10]; [21],0
same,"Plant response rating, Blackgrass",[10]; [22],0
same,"Plant response rating, Blackgrass",[10]; [23],3
same,Blackgrass plant response rating,[10]; [24],3
same,"Plant response rating, Wheat",[11]; [17],0
same,Wheat plant response rating,[11]; [18],0
same,Wheat plant response rating,[11]; [20],0
same,Wheat plant response rating,[11]; [21],0
same,"Plant response rating, Wheat",[11]; [22],0
same,"Plant response rating, Wheat",[11]; [23],0
same,Wheat plant response rating,[11]; [24],0
same,"Plant response rating, Wild oats",[12]; [17],0
same,Wild oats plant response rating,[12]; [18],0
same,Wild oats plant response rating,[12]; [20],0
same,Wild oats plant response rating,[12]; [21],0
same,"Plant response rating, Wild oats",[12]; [22],0
same,"Plant response rating, Wild oats",[12]; [23],0
same,Wild oats plant response rating,[12]; [24],0
same,"Plant response rating, Giant foxtail",[13]; [17],0
same,Giant foxtail plant response rating,[13]; [18],2
same,Giant foxtail plant response rating,[13]; [19],8
same,Giant foxtail plant response rating,[13]; [20],7
same,Giant foxtail plant response rating,[13]; [21],10
same,"Plant response rating, Giant foxtail",[13]; [22],10
same,"Plant response rating, Giant foxtail",[13]; [23],10
same,Giant foxtail plant response rating,[13]; [24],8
same,"Plant response rating, Nutsedge",[14]; [17],2
same,Nutsedge plant response rating,[14]; [18],2
same,Nutsedge plant response rating,[14]; [21],3
same,"Plant response rating, Nutsedge",[14]; [22],7
same,"Plant response rating, Nutsedge",[14]; [23],5
same,Nutsedge plant response rating,[14]; [24],4
same,"Plant response rating, Crabgrass",[15]; [17],0
same,Crabgrass plant response rating,[15]; [18],1
same,Crabgrass plant response rating,[15]; [19],7
same,Crabgrass plant response rating,[15]; [20],3
same,Crabgrass plant response rating,[15]; [21],8
same,"Plant response rating, Crabgrass",[15]; [22],9
same,"Plant response rating, Crabgrass",[15]; [23],9
same,Crabgrass plant response rating,[15]; [24],9
same,"Plant response rating, Soybean",[16]; [17],2
same,Soybean plant response rating,[16]; [18],4
same,Soybean plant response rating,[16]; [20],0
same,Soybean plant response rating,[16]; [21],0
same,"Plant response rating, Soybean",[16]; [22],0
same,"Plant response rating, Soybean",[16]; [23],0
same,Soybean plant response rating,[16]; [24],5
